The values below come from a melting point compilation (Tetko et al.; mined from patent text by program, amines drawn as free bases though some values may be those of a salt).

By melting point is commonly meant the temperature of the solid-liquid transition.

Take `CCCNC(=O)CCn1c(C)nc2c(N)nc3ccccc3c21`: the melting point lay in the range of 188 to 189 °C. Next, `CN(C)Cc1ccc(CSCCN=CNS(=O)(=O)c2ccccc2)o1`: 83 to 85 °C. The same measure for `CCCCc1ccc2scc(NC(=O)C(=O)OC)c(=O)c2c1`: 192 to 194 °C. The same measure for `CCOC(=O)C(C)(C)c1nc2ccc(OCCCN3CCC(OC(c4ccccc4)c4ccccc4)CC3)nn2c1Cl`: 186 to 188 °C; for `N#Cc1c(N2CCNCC2)c2cc(F)ccc2n(Cc2ccccc2)c1=O`: 162 °C; for `O=Cc1cccc2ccc(F)cc12`: 95 to 96 °C. In turn, `Cc1ccc2cccc(OCc3cccc(N(C)C(=O)CN4C(=O)c5ccccc5C4=O)c3C)c2n1` gave a melting point of 158 to 161 °C. The molecule `O=C(CN1CCC(Cc2ccccc2)CC1)Nc1ccc2c(c1)NC(=O)CO2` had a melting point of 220 to 222 °C.

`COc1ccc2c(Cc3c(Cl)cncc3Cl)nnc(Nc3nccs3)c2c1` yielded a melting point of 218 to 220 °C. The same measure for `COC(=O)n1cc2c(c1)-c1ccc(Cl)cc1C(c1ccccc1Cl)=[N+]([O-])C2`: 224 to 226 °C; for `CCCCCCCCCCCCCCCCCCOc1ccc2ccccc2c1O`: 58 to 59 °C; for `C=C(CCC(C)C1CCC2C3=C(C(=O)CC21C)C1(C)CCC(=O)C(C)C1CC3)C(C)C(=O)OC` (stereo unspecified): 100 to 102 °C. As for `COc1ccnc(CCc2nc3cc(-c4ccc(S(=O)(=O)N5CCC(C(=O)c6ccccc6)CC5)cc4)cnc3[nH]2)c1`, the melting point was 174 to 175 °C.

Consider `COc1cc(CCC(=O)CC(=O)c2ccc(F)cc2)ccc1O`, for which the melting point was 56 to 57 °C. `Cc1c(Br)c(=O)n(C2CCCC2)c2nc(Nc3ccc(N4CCN(C(=O)OC(C)(C)C)CC4)cn3)ncc12` showed a melting point greater than 250 °C. The same measure for `CCCc1nc2c(c(C)c(C)n3nnnc23)n1CC(C)(C)N`: 154 to 156 °C. The same measure for `O=[N+]([O-])CS(=O)(=O)c1ccc(F)cc1F`: 74 to 75 °C; for `COc1ccc(C#CC(C)N(O)C(N)=O)cc1` (stereo unspecified): 144 to 146 °C; for `Cc1ccc2nc(-c3ccc(Cl)cc3)cc(Cl)c2c1`: 136 to 138 °C. Next, `O=C(C1CCCCC1)C1CCN(C(=O)c2cc(O)c(O)c([N+](=O)[O-])c2)CC1`: 155 to 165 °C; `CC1(C)Cc2sccc2C(=O)N1`: 153 to 154 °C; `COc1cc(CON=C(CCC(=O)O)c2ccccc2)ccc1OCc1nc(-c2ccccc2)oc1C`: 134 to 135 °C. The molecule `O=C(NCCCc1c[nH]c(-c2ccc(F)cc2)c1-c1ccncc1)C(F)(F)F` displayed a melting point of 229 to 230 °C.

The molecule `CC(=O)c1ccc(S(=O)(=O)N2CCCC2)cc1` came in with a melting point of 138 to 139 °C. In turn, `CS(=O)(=O)Cc1c(C(=O)NN2CCCCC2)nn(-c2ccc(Cl)cc2Cl)c1-c1ccc(Cl)cc1` registered a melting point of 171 °C.

In turn, `O=C1CCC(c2ccc(C(=O)Nc3ccccc3F)cc2)=NN1` had a melting point of 242 to 244 °C. The same measure for `CC#CCOc1ccc(S(=O)(=O)C2(C(=O)O)CCN(Cc3ccc(OCCN4CCCCC4)cc3)CC2)cc1`: 172 °C; for `Clc1ccc(N2CCN=C2C(Cn2cncn2)c2ccccc2)c(Cl)c1` (stereo unspecified): 78 to 82 °C; for `N#Cc1cc(-c2nc3cncnc3s2)ccc1Sc1ccccc1F`: 178 to 180 °C. Next, `CCOC(=O)C1=C(COCc2nnc(CN(C)C)s2)NC(C)=C(C(=O)OC)C1c1cccc(Cl)c1Cl` (stereo unspecified): 168 to 170 °C; `CC(=O)c1cc2c(s1)CCc1cc(=O)n(-c3ccc(C)cc3)nc1-2`: 240 to 242 °C. The same measure for `CC(C(=O)n1c(=O)oc2ccccc21)C1(O)CCCCC1` (stereo unspecified): 58 to 59 °C. `COC(=O)C(=C(C)NCC(O)CO)c1nc(NC(C)=O)c([N+](=O)[O-])nc1Cl` (stereo unspecified): the melting point is 70 to 73 °C. The same measure for `COCc1nc(OC)c(NS(=O)(=O)c2cccc(Cl)c2Cl)nc1Cl`: 193 to 196 °C. For `Cc1c[nH]c(-c2nc([C@H]3CCCN(C(=O)c4ccc(F)cc4)C3)no2)c1`, the melting point turned out to be 183 °C. The same measure for `CC(=O)Nc1cc(SCC(C)C)ccc1[N+](=O)[O-]`: 53 to 55 °C; for `Cc1oc(-c2ccccc2)nc1COc1ccc(CCCC2SC(=O)NC2=O)cc1C(F)(F)F` (stereo unspecified): 154 to 155 °C; for `Cc1nc2cc(C(=O)NC3CC3)c(NC(=O)c3cc(C(F)(F)F)nn3-c3ncccc3Cl)c(Cl)c2nc1C`: 255 to 258 °C. The same measure for `CCCNC(=O)Nc1ccc2oc([N+](=O)[O-])c(-c3ccccc3)c2c1`: 199 to 201 °C; for `C=CC(C)OC(=O)c1c(C)nc2c(cnn2CCCCC)c1N` (stereo unspecified): 64.6 to 67.2 °C. In turn, `N=C(NO)c1ccc(-c2cccc(-c3nc4cc(C(=N)NO)ccc4[nH]3)c2)nc1` returned a melting point of 295 to 297 °C. The same measure for `Cc1ccc(-c2cccc(C#N)c2)cc1`: 59 to 61 °C. In turn, `CC12CCC(=O)C(N)=C1CCC1C2CCC2(C)C(OC3CC3)CCC12` (stereo unspecified) showed a melting point of 85 to 88 °C. As to `Cc1ccc(C)c(OCc2ccccc2C(=O)c2ccnn2C)c1`, the melting point lay in the range of 88 to 89 °C. Consider `COc1cccc(Cc2cc(F)ccc2O)c1`, for which the melting point was 153 to 155 °C. The same measure for `CCCCCCCCCCCCOC(=O)c1ccc(O)c([N+](=O)[O-])c1`: 70 °C; for `C[Si](C)(C)CCOC1OC(COC(=O)c2ccccc2)C(O)C(O)C1N=[N+]=[N-]` (stereo unspecified): 55 to 57 °C.

Turning to `O=C1Nc2ccccc2N(C(=O)Cl)c2c1csc2Cl`, the melting point was in the range of 158 to 161 °C. Next, `O=C1N(Cc2noc(C3CC3)n2)c2ccccc2C12COc1cc3c(cc12)OCO3` (stereo unspecified): 136 to 137 °C; `O=C(OC1CCCCC1C(C[N+](=O)[O-])c1ccc(Cl)cc1)c1ccc([N+](=O)[O-])cc1` (mixture of isomers): 146 to 148 °C.

`O=C(NCC1CCOCC1)Nc1ccc(C(F)(F)F)cc1` registered a melting point of 148 to 149 °C.

For `CC(C)(C)NC(=O)N1CCN(Cc2ccccc2)C[C@@H]1C(=O)N(CCCn1ccnc1)Cc1ccccc1`, the melting point stood at 57.8 °C. Next, `Nc1nc2cc3c(cc2s1)OCO3`: 200 °C; `O=C(Nc1cccnc1)N1CCc2cc(C(F)(F)F)ccc21`: 188 to 189 °C. Next, `O=C(Nc1ccccc1)OCC1c2ccccc2-c2ccccc21`: 243 to 244 °C; `Cc1ccc(C#CC(C)N(O)C(N)=O)cc1` (stereo unspecified): 144 °C; `COc1ccc(-c2nc(C)c(C)nc2-c2ccc(OC)cc2)cc1`: 106 to 108 °C. The same measure for `CC(C)c1cccc(C(C)C)c1NC(=O)CC(=O)CC(c1ccccc1)c1ccccc1`: 146 to 148 °C; for `CCN(CC)CCCCNc1ncc2c(n1)N(C1CCCC1)C(=O)N(c1c(F)c(OC)cc(OC)c1F)C2`: 132 to 133 °C; for `O=C(Nc1cccc(-c2ccnc3c(C(=O)c4cccs4)cnn23)c1)NC1CCCCC1`: 233 to 236 °C. In the case of `O=c1[nH]nc(C(F)(F)F)s1`, the melting point was 54 to 55 °C.
